Assay results taken from patent US20020111274A1, “1-alkyl-3-[1-(substituted phenyl) benzotriazol-6-yl] uracils” (BASF Aktiengesellschaft, priority 2000, published 2002).

How the values were obtained:
Parameters in all cases: scale not given here
SETVI Foxtail, Green [1] = assay: Preemergence herbicidal evaluation, SETVI; type: in vivo, Setaria viridis, (L.) Beau; conditions: preemergence
Outline: (§1)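 Preemergence soil spray: aqueous acetone, ~0.013–0.800 kg/ha, applied right after sowing (seed/potting-soil mix over ~1 in soil). Greenhouse, routine watering. Scored 4–5 wk post-treatment on a rating scale.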

ORYSAT Rice, Tebonnet = assay: Preemergence herbicidal evaluation, ORYSAT; type: in vivo, Oryza sativa, (L.); conditions: preemergence
Outline: as §1

ABUTH Velvetleaf = assay: Postemergence herbicidal evaluation, ABUTH; type: in vivo, Abutilon theophrasti, Medic.; conditions: postemergence spray, rated about two-three weeks after treatment
Outline: (§2)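 Visual injury rating ~2–3 wk post-spray; replicate tests averaged. Two-week-old seedlings; foliar spray at 40 psi; 0.006–0.400 kg ai/ha in 80/20 acetone/water + 1.0% methylated seed oil.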

[2] = tested on: TRZAWR Wheat, Winter, cv Riband; assay: Postemergence herbicidal evaluation, TRZAWR; type: in vivo, Triticum aestivum; conditions: postemergence spray, rated about two-three weeks after treatment
Outline: as §2

ECHOG Barnyardgrass = assay: Postemergence herbicidal evaluation, ECHOG; type: in vivo, Echinochloa crus-galli, (L.) Beau; conditions: postemergence spray, rated about two-three weeks after treatment
Outline: as §2

[3] = tested on: CHEAL Lambsquarters, Common; assay: Preemergence herbicidal evaluation, CHEAL; type: in vivo, Chenopodium album, L.; conditions: preemergence
Outline: as §1

SETVI Foxtail, Green [4] = assay: Postemergence herbicidal evaluation, SETVI; type: in vivo, Setaria viridis, (L.) Beau; conditions: postemergence spray, rated about two-three weeks after treatment
Outline: as §2

ZEAMX Corn, Field = assay: Postemergence herbicidal evaluation, ZEAMX; type: in vivo, Zea mays, L. (Sammel-Bezeichnung); conditions: postemergence spray, rated about two-three weeks after treatment
Outline: as §2

GALAP Galium = assay: Preemergence herbicidal evaluation, GALAP; type: in vivo, Galium aparine; conditions: preemergence
Outline: as §1

[5] = tested on: IPOHE Morningglory, Ivyleaf; assay: Postemergence herbicidal evaluation, IPOHE; type: in vivo, Ipomoea hederacea, (L.) Jacq.; conditions: postemergence spray, rated about two-three weeks after treatment
Outline: as §2

[6] = tested on: IPOHE Morningglory, Ivyleaf; assay: Preemergence herbicidal evaluation, IPOHE; type: in vivo, Ipomoea hederacea, (L.) Jacq.; conditions: preemergence
Outline: as §1

[7] = tested on: CHEAL Lambsquarters, Common; assay: Postemergence herbicidal evaluation, CHEAL; type: in vivo, Chenopodium album, L.; conditions: postemergence spray, rated about two-three weeks after treatment
Outline: as §2

CCc1ccc(-n2nnc3cc(F)c(-n4c(=O)cc(C(F)(F)F)n(C)c4=O)cc32)cc1 [Example 17, 3-[1-(4-ethylphenyl)-5-fluoro-1H-1,2,3-benzotriazol-6-yl]-1-methyl-6-(trifluoromethyl)-2,4(1H,3H)-pyrimidinedione]
SETVI herbicidal rating (SETVI Foxtail, Green [1]; rate 0.016 kg/ha): 6.5 | SETVI herbicidal rating (SETVI Foxtail, Green [1]; rate 0.032 kg/ha): 7.3 | SETVI herbicidal rating (SETVI Foxtail, Green [1]; rate 0.062 kg/ha): 9.0 | SETVI herbicidal rating (SETVI Foxtail, Green [1]; rate 0.125 kg/ha): 9.0 | ORYSAT herbicidal rating (ORYSAT Rice, Tebonnet; rate 0.016 kg/ha): 1.0 | ORYSAT herbicidal rating (ORYSAT Rice, Tebonnet; rate 0.032 kg/ha): 0.5 | ORYSAT herbicidal rating (ORYSAT Rice, Tebonnet; rate 0.062 kg/ha): 4.0 | ORYSAT herbicidal rating (ORYSAT Rice, Tebonnet; rate 0.125 kg/ha): 4.7 | Postemergence herbicidal rating ABUTH (ABUTH Velvetleaf; 0.008 kg/ha): 9.0 | Postemergence herbicidal rating ABUTH (ABUTH Velvetleaf; 0.016 kg/ha): 9.0 | Postemergence herbicidal rating ABUTH (ABUTH Velvetleaf; 0.032 kg/ha): 9.0 | Postemergence herbicidal rating ABUTH (ABUTH Velvetleaf; 0.062 kg/ha): 9.0 | Postemergence herbicidal rating TRZAWR ([2]; 0.008 kg/ha): 3.5 | Postemergence herbicidal rating TRZAWR ([2]; 0.016 kg/ha): 3.5 | Postemergence herbicidal rating TRZAWR ([2]; 0.032 kg/ha): 4.0 | Postemergence herbicidal rating TRZAWR ([2]; 0.062 kg/ha): 5.0 | Postemergence herbicidal rating ECHCG (ECHOG Barnyardgrass; 0.008 kg/ha): 0.0 | Postemergence herbicidal rating ECHCG (ECHOG Barnyardgrass; 0.016 kg/ha): 0.0 | Postemergence herbicidal rating ECHCG (ECHOG Barnyardgrass; 0.032 kg/ha): 1.0 | Postemergence herbicidal rating ECHCG (ECHOG Barnyardgrass; 0.062 kg/ha): 5.0 | CHEAL herbicidal rating ([3]; rate 0.016 kg/ha): 9.0 | CHEAL herbicidal rating ([3]; rate 0.032 kg/ha): 9.0 | CHEAL herbicidal rating ([3]; rate 0.062 kg/ha): 9.0 | CHEAL herbicidal rating ([3]; rate 0.125 kg/ha): 9.0 | Postemergence herbicidal rating SETVI (SETVI Foxtail, Green [4]; 0.008 kg/ha): 1.0 | Postemergence herbicidal rating SETVI (SETVI Foxtail, Green [4]; 0.016 kg/ha): 1.0 | Postemergence herbicidal rating SETVI (SETVI Foxtail, Green [4]; 0.032 kg/ha): 3.0 | Postemergence herbicidal rating SETVI (SETVI Foxtail, Green [4]; 0.062 kg/ha): 8.0 | Postemergence herbicidal rating ZEAMX (ZEAMX Corn, Field; 0.008 kg/ha): 5.0 | Postemergence herbicidal rating ZEAMX (ZEAMX Corn, Field; 0.016 kg/ha): 5.5 | Postemergence herbicidal rating ZEAMX (ZEAMX Corn, Field; 0.032 kg/ha): 5.5 | Postemergence herbicidal rating ZEAMX (ZEAMX Corn, Field; 0.062 kg/ha): 5.5 | GALAP herbicidal rating (GALAP Galium; rate 0.016 kg/ha): 0.0 | GALAP herbicidal rating (GALAP Galium; rate 0.032 kg/ha): 0.0 | GALAP herbicidal rating (GALAP Galium; rate 0.062 kg/ha): 1.0 | GALAP herbicidal rating (GALAP Galium; rate 0.125 kg/ha): 1.0 | Postemergence herbicidal rating IPOHE ([5]; 0.008 kg/ha): 9.0 | Postemergence herbicidal rating IPOHE ([5]; 0.016 kg/ha): 9.0 | Postemergence herbicidal rating IPOHE ([5]; 0.032 kg/ha): 9.0 | Postemergence herbicidal rating IPOHE ([5]; 0.062 kg/ha): 9.0 | IPOHE herbicidal rating ([6]; rate 0.016 kg/ha): 0.0 | IPOHE herbicidal rating ([6]; rate 0.032 kg/ha): 3.3 | IPOHE herbicidal rating ([6]; rate 0.062 kg/ha): 6.0 | IPOHE herbicidal rating ([6]; rate 0.125 kg/ha): 9.0 | Postemergence herbicidal rating CHEAL ([7]; 0.008 kg/ha): 9.0 | Postemergence herbicidal rating CHEAL ([7]; 0.016 kg/ha): 6.0 | Postemergence herbicidal rating CHEAL ([7]; 0.032 kg/ha): 7.0
